The record followed here is patent US20230027198A1 (The Rockefeller University, priority 2019, published 2023).

For assay [1], the target named is T1, ENL YEATS domain (6×HIS ENL YEATS Domain) binding to H3K9cr peptide (Homo sapiens, UniProt Q03111).
T1 construct: aa1-150; EpiCypher, 15-0069; purchased EpiCypher 15-0069
T1 sequence (Q03111 1-150): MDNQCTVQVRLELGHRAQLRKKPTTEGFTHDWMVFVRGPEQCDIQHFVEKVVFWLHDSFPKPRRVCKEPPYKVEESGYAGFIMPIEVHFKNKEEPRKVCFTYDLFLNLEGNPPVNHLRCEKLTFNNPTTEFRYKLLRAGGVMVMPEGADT
The assay is described as follows: TR-FRET ENL Screening Assay, FRET Assay Protocol 1. The conditions noted are these: H3K9cr peptide (aa1-20). On the procedure:
Compounds of the invention were dissolved in DMSO at a concentration of 3 mM with subsequent dilutions in assay buffer (50 mM HEPES PH7.0, 150 mM NaCl, 0.05% BSA, 0.2% Pluronic F-127) such that the assay contained 1% DMSO. […] Low control (LC) wells received 5 uL of assay buffer instead of ENL protein. […] Compound concentration response curves were performed in duplicate over the concentration range of 0.15 nM-30 uM. The response at each compound concentration minus the LC value was converted to percent inhibition of the vehicle control group response (HC-LC). The relationship between the % inhibition and the compound concentration was analyzed using a four parameter logistic equation to estimate lower and upper asymptotes, the compound concentration producing 50% inhibition (IC50 value) and the slope at the mid-point location.

A further assay deals with MV4-11 cells. The assay is described as follows: Cell viability assay (CellTiter-Glo), 12 days. The conditions noted are these: Homo sapiens, readouts on days 4, 8 and 12, day not given. In kind it is cell-based. On the procedure: Cell-based assays were used to assess the ability of test compounds to reduce cell viability in both MV4:11 (MLL-AF4 MLL) and K562 cells, which were cultured in Iscove's Modified Dulbecco's medium (Gibco, 12440061) containing […]. The assays were conducted over 12 days and the cells being split on days 4 and 8. Compound concentration response curves were performed in duplicate over the concentration range of 0.15 nM-30 uM. On day 0, the compounds or vehicle were plated in a 300 nL directly into 96 well cell culture plates (Corning, 3599) with 5000 cells/well in a volume of 100 uL. Blank wells received cell culture medium. Plates were incubated for 4 days at 37° C. with 5% CO2. On days 4 and day 8 the cells were split and incubated for a further 4 days whilst an aliquot of cells were taken for the CTG readout. For the cell splitting, 270 nL of compounds or DMSO was added to a new 96 well cell culture plate to which 90 uL of medium plus 10 uL of cells from the original assay plate (after mixing) or 100 uL of medium (Blank wells) was added. This was repeated on day 8.
Cell viability was assessed using the CellTiter-Glo® homogeneous luminescent assay kit (Promega, G9243), according to the manufacturer's instructions. This quantifies ATP, which indicates the presence of metabolically active cells. On days 4, 8 and 12, 20 ul of the remaining cell suspension was aspirated into 384-well plate (Corning 3570) to which an equal volume CellTiter-Glo reagent was. Plates were incubated for 10 minute incubation at RT prior to recording the luminescence signal using EnVision plate reader (PE, 2104). The resulting data were analyzed as follows:
Inhibition (%)=100%×(Lumvehicie−Lumsample)/(Lumvehicle−Lumblank)
where vehicle are cells treated with 0.3% DMSO, Blank is culture medium. IC50 determinations were calculated by fitting the curve using XLfit (v5.3.1.3): Y=Bottom+(Top−Bottom)/(1+10^((Log IC50−X)*HillSlope)).
On the technique in general: Cellular ATP, detected with luciferase, serves as a proxy for viable cell number.

As a reminder, the IC50 is the concentration needed to halve the response being measured.

On to `C[C@H]1CCCN1Cc1cc2cnc(NC(=O)c3ccc4c(N)nn(C)c4c3)cc2[nH]1` [Example 60], for which the concentration for half-maximal inhibition (IC50) in assay [1] turned out to be 330 nM; in the assay with MV4-11 cells it was 0.182 µM.

As for `C[C@H]1CCCN1Cc1cc2cnc(NC(=O)c3ccc(-c4cnn(CC#N)c4)cc3)cc2[nH]1` [Example 52], the values for the IC50 (in assay [1]; with MV4-11 cells) were 154 nM and 0.184 µM, respectively.

As for `C[C@H]1CCCN1Cc1cc2cnc(NC(=O)c3ccc(-c4cnn(C)c4)cc3F)cc2[nH]1` [Example 34], the half-maximal inhibitory concentration (IC50) in assay [1] was 227 nM; in the assay with MV4-11 cells it was 0.122 µM.

As for `C[C@H]1CCCN1Cc1cc2cnc(NC(=O)c3ccc4cc(=O)[nH]cc4c3)cc2[nH]1` [Example 23, N-(2-[[(2S)-2-methylpyrrolidin-1-yl]methyl]-1H-pyrrolo[3,2-c]pyridin-6-yl)-3-oxo-2H-isoquinoline-7-carboxamide], the values for the IC50 (in assay [1]; in the assay on MV4-11 cells) were 208 nM and 0.076 µM, respectively.

Turning to `Cc1cc2cc(C(=O)Nc3cc4[nH]c(CN5CCC[C@@H]5C)cc4cn3)ccc2nn1` [Example 57], the IC50 in assay [1] came to 272 nM; with MV4-11 cells, 0.314 µM.

Consider `Cc1nn(C)c2cc(C(=O)Nc3cc4[nH]c(CN5CCC[C@@H]5C)cc4cn3)ccc12` [Example 5], for which the IC50 in assay [1] turned out to be 125 nM; in the assay on MV4-11 cells it was 0.022 µM.

Regarding `COCCNc1nn(C)c2cc(C(=O)Nc3cc4[nH]c(CN5CCC[C@@H]5C)cc4cn3)ccc12` [Example 94, 3-[(2-methoxyethyl)amino]-1-methyl-N-(2-[[(2S)-2-methylpyrrolidin-1-yl]methyl]-1H-pyrrolo[3,2-c]pyridin-6-yl)indazole-6-carboxamide], the half-inhibitory concentration (IC50) in assay [1] is 118 nM; in the assay on MV4-11 cells, 0.365 µM.

Regarding `C[C@H]1CCCN1Cc1cc2cnc(NC(=O)c3ccc4c(C(F)F)nn(C)c4c3)cc2[nH]1` [Example 55], the IC50 in assay [1] was 116 nM; in the assay with MV4-11 cells, 0.058 µM.

For `C[C@H]1CCCN1Cc1cc2cnc(NC(=O)c3ccc4oc(=O)[nH]c4c3)cc2[nH]1` [Example 24, N-(2-[[(2S)-2-methylpyrrolidin-1-yl]methyl]-1H-pyrrolo[3,2-c]pyridin-6-yl)-2-oxo-3H-1,3-benzoxazole-5-carboxamide], the IC50 in assay [1] is 1090 nM; in the assay on MV4-11 cells, 1.46 µM.

As to `Cc1ncc2cc(C(=O)Nc3cc4[nH]c(CN5CCC[C@@H]5C)cc4cn3)ccn12` [Example 99, 3-methyl-N-(2-[[(2S)-2-methylpyrrolidin-1-yl]methyl]-1H-pyrrolo[3,2-c]pyridin-6-yl)imidazo[1,5-a]pyridine-7-carboxamide], the IC50 stood at 186 nM in assay [1] and 0.468 µM in the assay with MV4-11 cells.

In the case of `Cc1n[nH]c2cc(C(=O)Nc3cc4[nH]c(CN5CCC[C@@H]5C)cc4cn3)ccc12` [Example 67], the IC50 is 125 nM in assay [1] and 0.149 µM with MV4-11 cells.

`Cn1ncc2ccc(C(=O)Nc3cc4[nH]c(CN5CC6(CCOCC6)C5)cc4cn3)cc21` [Example 104]: the IC50 in assay [1] stood at 210 nM; in the assay with MV4-11 cells, 0.22 µM.

With `Cc1n[nH]c2ccc(C(=O)Nc3cc4[nH]c(CN5CCC[C@@H]5C)cc4cn3)cc12` [Example 47], the IC50 was found to be 144 nM in assay [1] and 0.128 µM with MV4-11 cells.

On to `C[C@H]1CCCN1Cc1cc2cnc(NC(=O)c3ccc4c(CO)nccc4c3)cc2[nH]1` [Example 66], for which the IC50 in assay [1] came out at 85 nM; in the assay on MV4-11 cells, 0.094 µM.

Take `C[C@H]1CCCN1Cc1cc2cnc(NC(=O)c3ccc4cnn(C)c4c3)cc2[nH]1` [Example 7]: the IC50 was 298 nM in assay [1] and 0.173 µM with MV4-11 cells.

Consider `CNc1cc2ccc(C(=O)Nc3cc4[nH]c(CN5CCC[C@@H]5C)cc4cn3)cc2cn1` [Example 97], for which the IC50 in assay [1] stood at 572 nM; in the assay with MV4-11 cells it was 0.321 µM.

Regarding `Cc1ccc2cc(C(=O)Nc3cc4[nH]c(CN5CCC[C@@H]5C)cc4cn3)ccc2n1` [Example 22], the IC50 in assay [1] amounted to 139 nM; in the assay on MV4-11 cells, 0.127 µM.

As for `C[C@H]1CCCN1Cc1cc2cnc(NC(=O)c3ccc(-c4cnn(C(F)F)c4)cc3)cc2[nH]1` [Example 50], the values for the half-maximal inhibitory concentration (IC50) (in assay [1]; with MV4-11 cells) were 158 nM and 0.1 µM, respectively.

As to `C[C@H]1CCCN1Cc1cc2cnc(NC(=O)c3ccc(-c4ccn(C)n4)cc3F)cc2[nH]1` [Example 32], the IC50 in assay [1] was 1400 nM; in the assay on MV4-11 cells, 0.455 µM.

Consider `C[C@H]1CCCN1Cc1cc2cnc(NC(=O)c3ccc4c(N(C)C)nn(C)c4c3)cc2[nH]1` [Example 86], for which the values for the IC50 (in assay [1]; in the assay with MV4-11 cells) were 209 nM and 0.482 µM, respectively.

Consider `CNc1nn(C)c2cc(C(=O)Nc3cc4[nH]c(CN5CCC[C@@H]5C)cc4cn3)ccc12` [Example 85], for which the IC50 worked out at 176 nM in assay [1] and 0.183 µM with MV4-11 cells.

On to `COc1cc2ccc(C(=O)Nc3cc4[nH]c(CN5CCC[C@@H]5C)cc4cn3)cc2cn1` [Example 88], for which the 50% inhibitory concentration (IC50) was found to be 141 nM in assay [1] and 0.623 µM with MV4-11 cells.

For `C[C@H]1CCCN1Cc1cc2cnc(NC(=O)c3ccc4c(c3)c(N)nn4C)cc2[nH]1` [Example 92], the half-inhibitory concentration (IC50) in assay [1] is 210 nM; in the assay with MV4-11 cells, 0.134 µM.

In turn, `Cc1n[nH]cc1-c1ccc(C(=O)Nc2cc3[nH]c(CN4CCC[C@@H]4C)cc3cn2)cc1` [Example 89] came in with a 50% inhibitory concentration (IC50) in assay [1] of 499 nM.

The molecule `C[C@H]1CCCN1Cc1cc2cnc(NC(=O)c3ccc(-c4ccnn4C)cc3F)cc2[nH]1` [Example 31] had an IC50 in assay [1] of 864 nM.

Molecule `C[C@H]1CCCN1Cc1cc2cnc(NC(=O)c3ccc4nc(N)ncc4c3)cc2[nH]1` [Example 59] gave an IC50 in assay [1] of 513 nM.

On to `Cc1ccc(-c2ccc(C(=O)Nc3cc4[nH]c(CN5CCC[C@@H]5C)cc4cn3)c(F)c2)nn1` [Example 35], for which, in assay [1], the IC50 is 657 nM.

`CC(c1ccc(C(=O)Nc2cc3[nH]c(CN4CCC[C@@H]4C)cc3cn2)cc1)c1ccccn1` (stereo partly drawn) [Example 10, N-(2-[[(2S)-2-methylpyrrolidin-1-yl]methyl]-1H-pyrrolo[3,2-c]pyridin-6-yl)-4-[1-(pyridin-2-yl)ethyl]benzamide]: the IC50 in assay [1] was found to be 1780 nM.

As to `C[C@H]1CCCN1Cc1cc2cnc(NC(=O)c3ccc(-c4cnn(CCO)c4)cc3)cc2[nH]1` [Example 20, 4-[1-(2-hydroxyethyl)pyrazol-4-yl]-N-(2-[[(2S)-2-methylpyrrolidin-1-yl]methyl]-1H-pyrrolo[3,2-c]pyridin-6-yl)benzamide], the 50% inhibitory concentration (IC50) in assay [1] is 166 nM.

In assay [1], `C[C@H]1CCCN1Cc1cc2ncc(NC(=O)c3ccc(-c4cc[nH]n4)cc3F)cc2[nH]1` [Example 41] yielded a 50% inhibitory concentration (IC50) of 410 nM.

`Cc1nc2cc(C(=O)Nc3cc4[nH]c(CN5CCC[C@@H]5C)cc4cn3)ccc2o1` [Example 3, 2-methyl-N-(2-[[(2S)-2-methylpyrrolidin-1-yl]methyl]-1H-pyrrolo[3,2-c]pyridin-6-yl)-1,3-benzoxazole-5-carboxamide] displayed an IC50 in assay [1] of 884 nM.

In assay [1], `Cc1cnnc(-c2ccc(C(=O)Nc3cc4[nH]c(CN5CCC[C@@H]5C)cc4cn3)c(F)c2)c1` [Example 36] gave a half-maximal inhibitory concentration (IC50) of 669 nM.

On to `COCC#CCn1ncc2cc(C(=O)Nc3cc4[nH]c(CN5CCC[C@@H]5C)cc4cn3)ccc21` [Example 27, 1-(4-methoxybut-2-yn-1-yl)-N-(2-[[(2S)-2-methylpyrrolidin-1-yl]methyl]-1H-pyrrolo[3,2-c]pyridin-6-yl)indazole-5-carboxamide], for which the IC50 in assay [1] was found to be 258 nM.

Regarding `C[C@H]1CCCN1Cc1cc2cnc(NC(=O)c3ccc(-c4cc[nH]n4)cc3F)cc2[nH]1` [Example 43, 2-fluoro-N-(2-[[(2S)-2-methylpyrrolidin-1-yl]methyl]-1H-pyrrolo[3,2-c]pyridin-6-yl)-4-(1H-pyrazol-3-yl)benzamide], the half-inhibitory concentration (IC50) in assay [1] came to 699 nM.

In assay [1], `Cc1c[nH]c2cc(C(=O)Nc3cc4[nH]c(CN5CCC[C@@H]5C)cc4cn3)ccc12` [Example 68] gave an IC50 of 622 nM.

For `C[C@H]1CCCN1Cc1cc2cnc(NC(=O)c3ccc4nccnc4c3)cc2[nH]1` [Example 38], the concentration for half-maximal inhibition (IC50) in assay [1] turned out to be 489 nM.

`Cc1n[nH]c2ccc(C(=O)Nc3cc4[nH]c(CN5CCC[C@@H]5C)c(F)c4cn3)cc12` [Example 107, N-(3-fluoro-2-[[(2S)-2-methylpyrrolidin-1-yl]methyl]-1H-pyrrolo[3,2-c]pyridin-6-yl)-3-methyl-1H-indazole-5-carboxamide] returned an IC50 in assay [1] of 94 nM.
